From article PMC11673335, “Mannich Base Derived from Lawsone Inhibits PKM2 and Induces Neoplastic Cell Death” (Biomedicines, 2024)

Biological target: T1, PKM2 (pyruvate kinase M2) (Homo sapiens, UniProt P14618)
T1 construct: gene PKM; recombinant human PKM2 (Sigma-Aldrich #SAE0021)
Assay: LDH-coupled PKM2 activity assay; confirmed by ATP production (CellTiter-Glo)
Format: biochemical

T1 sequence (P14618 2-531): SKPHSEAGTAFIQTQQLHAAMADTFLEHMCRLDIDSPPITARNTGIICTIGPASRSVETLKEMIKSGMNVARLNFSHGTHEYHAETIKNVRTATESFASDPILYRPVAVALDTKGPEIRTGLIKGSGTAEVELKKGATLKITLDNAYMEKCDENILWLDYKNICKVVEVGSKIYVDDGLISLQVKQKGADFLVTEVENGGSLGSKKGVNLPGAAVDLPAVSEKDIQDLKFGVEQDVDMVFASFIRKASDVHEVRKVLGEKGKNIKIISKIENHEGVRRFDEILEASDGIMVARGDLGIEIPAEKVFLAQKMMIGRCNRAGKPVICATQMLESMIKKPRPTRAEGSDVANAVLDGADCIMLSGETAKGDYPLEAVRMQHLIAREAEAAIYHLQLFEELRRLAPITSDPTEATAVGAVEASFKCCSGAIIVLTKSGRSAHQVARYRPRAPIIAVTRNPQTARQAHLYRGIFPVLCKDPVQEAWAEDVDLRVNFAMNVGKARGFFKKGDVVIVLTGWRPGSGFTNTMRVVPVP

IC50: 1.04 µM
Substance: methyl benzyl((4-chlorophenyl)(3-((methoxycarbonyl)oxy)-1,4-dioxo-1,4-dihydronaphthalen-2-yl)methyl)carbamate [MB-6a]
